# According to US6451850B1, “Bio-chemical germanium complexes with high therapeutic efficiency and wide application spectrum” (priority 2001, dated 2002):
# “And” between values parts separate entries of the source, which are not always exact repeats. Identical values can stand only once.
# Columns and labels:
# [1] = Antiinflammatory effect, formalin paw edema (method by Ju. Strel'nikov); type: in vivo; conditions: white mice, into the stomach, dose equimolecular to 20 mg/kg of indometacin, two hours before formalin
# Source text: Strel'nikov. […] Simultaneously antiinflammatory activity of indometacin was studied for comparison.
# [2] = tested on: virus of herpes simplex (VHS) of the 2-nd antigenic type; test: Experimental herpes genitalis of male guinea pigs, treatment with Virolex or its OGC complex; type: in vivo; conditions: for Duration of the Disease: treatment begun 48 hours after infecting
# Source text: VIRUSES. The virus of herpes simplex (VHS) of the 2-nd antigenic type was implied in this work. Clinical symptoms of experimental herpes genitalis were registered daily before carrying out of treatment and were followed during the course of the disease.
# The following parameters were used as criteria of infectious process danger: square and specific damage rate—presence of an edema, hyperemia, orchitis. Maximum distinction of each symptom made up 4 points. The present symptoms allow to buildup a scale and to express the course of the disease for each group under investigation from beginning of appearance of the first symptoms of the disease up to full disappearance of these. In this case index of therapeutic effect (ITE) is expressed with the following formula: [formula]
# Treatment was began 48 hours after infecting when symptoms of the disease were distinct enough.
# The first group included animals infected with VHS-2 and not subjected to treatment with any medicament.
# The second group included animals infected with VHS-2 and subjected to treatment with 5 mg of Virolex once a day.
# The third group included animals infected with VHS-2 and subjected to treatment with 5 mg of Virolex complex with OGC once a day.
# [3] = guinea pigs infected with VHS-2, 5 mg once a day
structure (smiles),measurement,setting,value
COc1ccc2c(c1)c(CC(=O)O)c(C)n2C(=O)c1ccc(Cl)cc1 [Indometacin],reduction of the edema compared to the control group,[1],33.4%
"Nc1nc2c(ncn2COCCO)c(=O)[nH]1.[OH][Ge]12[O]CCN(CC[O]1)CC[O]2 [Virolex OGC (R = OH), complex of 1-hydroxy-1-germa-2,8,9-trioxy-5-azatricyclo[3.3.3.0^1,5]undecane with Virolex]",convalescent earlier than in the second group (Virolex),[2]; 5 mg once a day,4.9 days
same,day of convalescence after infecting,[2]; 5 mg once a day,sixth
same,Duration of the Disease,[2]; [3],"6,2 ± 1,8 Days"
same,toxic effect on infected animals compared to pure Virolex,[2]; infected guinea pigs,decreased its toxic effect
"Nc1nc2c(ncn2COCCO)c(=O)[nH]1 [Virolex, reference compound]",Total Index of Symptoms Distinction,[2]; [3],"21 Points and 31,0 Points"
same,Duration of the Disease,[2]; [3],"11,1 ± 2,01 Days"
same,Index of Therapeutic Effect (ITE),"[2]; guinea pigs infected with VHS-2, 5 mg once a day, versus control group",58%
